Laboratory results taken from the supplement of paper PMC10627819.

Columns and labels:
[1] = system: B. subtilis 168; assay: fitness (endpoint OD595 vs no drug) (fraction); higher = more growth
Summary of the method: (§1)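 Bacterial growth was followed in 384-well plates seeded at OD595 0.01, with 30 µl per well, or 55 µl for S. pneumoniae, in TSB, LB Lennox or CY at 37 °C. OD595 was read every 30 min for 14 h, and each reading had the first reading subtracted as background. Fitness is the background-corrected optical density at entry into stationary phase divided by the robust mean of the no-drug control wells. This ratio is capped at 1.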

[2] = system: S. aureus DSM 20231; assay: as above
Summary of the method: as §1

[3] = system: S. pneumoniae D39V; assay: as above
Summary of the method: as §1

[4] = system: B. subtilis 168; assay: Bliss interaction score (quartile over a dose matrix) (fitness difference); higher = more antagonism (negative = synergy)
Summary of the method: (§2)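 The Bliss score subtracts expected fitness, the product of the single-drug fitness values, from observed fitness. Fitness is plate-normalised OD595 at entry into stationary phase, relative to the robust no-drug mean and capped at 1, with single-drug fitness inferred from combinations. Summaries are quartiles over technical, biological and donor/recipient replicates.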

[5] = system: S. aureus DSM 20231; assay: as above
Summary of the method: as §2

[6] = system: S. aureus Newman; assay: as above
Summary of the method: as §2

[7] = system: S. pneumoniae D39V; assay: as above
Summary of the method: as §2
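Wherever Bliss interaction score (quartile over a dose matrix) is given: first quartile when negative (synergy) and third quartile when positive (antagonism).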

CC(=O)NC[C@H]1CN(c2ccc(N3CCOCC3)c(F)c2)C(=O)O1 [Linezolid] + CN(N=O)C(=O)N[C@@H](C=O)[C@@H](O)[C@H](O)[C@H](O)CO [Streptozotocin]
fitness, one replicate
Settings	partner 0.15 µg/mL	partner 0.3 µg/mL	partner 0.6 µg/mL	partner 1.2 µg/mL	partner 2.4 µg/mL	partner 4.8 µg/mL
[1], first compound 0.0625 µg/mL	0.957	0.927	0.929	–	–	–
[1], first compound 0.5 µg/mL	0.0222	0.0242	0.0095	–	–	–
[2], first compound 1 µg/mL	0.023	0.0376	0.0265	–	–	–
[3], first compound 0.2 µg/mL	–	–	–	0.806	0.823	0.787
[3], first compound 0.4 µg/mL	–	–	–	0.615	0.69	0.653
[3], first compound 0.8 µg/mL	–	–	–	0.299	0.351	0.204

fitness
Settings	partner 0.15 µg/mL	partner 0.3 µg/mL	partner 0.6 µg/mL	partner 1.2 µg/mL	partner 2.4 µg/mL	partner 4.8 µg/mL
[1], first compound 0.125 µg/mL	0.479	0.502	0.453	–	–	–
[1], first compound 0.25 µg/mL	0.0775	0.0625	0.0614	–	–	–
[2], first compound 0.125 µg/mL	0.778	0.738	0.68	–	–	–
[2], first compound 0.25 µg/mL	0.519	0.504	0.496	–	–	–
[2], first compound 0.5 µg/mL	0.129	0.176	0.133	–	–	–
[3], first compound 0.105 µg/mL	–	–	–	0.771	0.815	0.778
[3], first compound 0.21 µg/mL	–	–	–	0.69	0.668	0.704
[3], first compound 0.42 µg/mL	–	–	–	0.438	0.432	0.408

Settings	Bliss interaction score
[4]	-0.0322
[5]	-0.0379
[6]	-0.0367
[7]	-0.115

CC(=O)NC[C@H]1CN(c2ccc(N3CCOCC3)c(F)c2)C(=O)O1 [Linezolid] + CN[C@@H]1[C@H](O)[C@H](NC)[C@H]2O[C@@]3(O)C(=O)C[C@@H](C)O[C@H]3O[C@@H]2[C@H]1O [Spectinomycin]
one replicate
Settings	fitness
[1], first compound 0.0625 µg/mL, partner 2 µg/mL	0.893
[1], first compound 0.0625 µg/mL, partner 4 µg/mL	0.814
[1], first compound 0.0625 µg/mL, partner 8 µg/mL	0.654
[2], first compound 0.125 µg/mL, partner 32 µg/mL	0.472
[2], first compound 0.125 µg/mL, partner 64 µg/mL	0.0532
[2], first compound 0.25 µg/mL, partner 32 µg/mL	0.341
[2], first compound 0.25 µg/mL, partner 64 µg/mL	0.037
[2], first compound 0.5 µg/mL, partner 32 µg/mL	0.135
[2], first compound 0.5 µg/mL, partner 64 µg/mL	0.0476
[2], first compound 1 µg/mL, partner 4 µg/mL	0.0244
[2], first compound 1 µg/mL, partner 8 µg/mL	0.0183
[2], first compound 1 µg/mL, partner 16 µg/mL	0.009
[3], first compound 0.2 µg/mL, partner 4 µg/mL	0.8
[3], first compound 0.2 µg/mL, partner 8 µg/mL	0.769
[3], first compound 0.4 µg/mL, partner 4 µg/mL	0.633
[3], first compound 0.4 µg/mL, partner 8 µg/mL	0.659
[3], first compound 0.8 µg/mL, partner 4 µg/mL	0.271
[3], first compound 0.8 µg/mL, partner 8 µg/mL	0.302

fitness
Settings	partner 2 µg/mL	partner 4 µg/mL	partner 8 µg/mL	partner 16 µg/mL
[1], first compound 0.125 µg/mL	0.507	0.426	0.336	–
[1], first compound 0.25 µg/mL	–	0.0516	0.0689	–
[1], first compound 0.5 µg/mL	0.0491	0.039	0.0208	–
[2], first compound 0.125 µg/mL	–	0.857	0.838	0.702
[2], first compound 0.25 µg/mL	–	0.547	0.458	0.419
[2], first compound 0.5 µg/mL	–	0.156	0.119	0.175
[3], first compound 0.105 µg/mL	–	0.767	0.73	0.694
[3], first compound 0.21 µg/mL	–	0.663	0.662	0.582
[3], first compound 0.42 µg/mL	–	0.454	0.343	0.284

Settings	Bliss interaction score
[4]	-0.0551
[5]	-0.0609
[6]	-0.12
[7]	-0.134
